These results are taken from ChEMBL document CHEMBL5705896 (ACS Chem Biol, 2013).

SMILES strings stand for the structures. pEC50, pIC50: −log10 of the molar value. Active and inactive are the calls of the source. The calls are words filed in the database; no cut-off is given here.

Data set [1] has as its target T1, Histone-lysine N-methyltransferase EZH2 (Homo sapiens, UniProt Q15910). The data set is described as follows: Inhibition of EZH2 methyltransferase activity (unknown origin) in PRC2 complex using 3H-SAM as substrate by Scintillation proximity assay. Background: Scintillation proximity formats need no separation of bound from free tracer.
Target sequence in this assay (Q15910 whole entry): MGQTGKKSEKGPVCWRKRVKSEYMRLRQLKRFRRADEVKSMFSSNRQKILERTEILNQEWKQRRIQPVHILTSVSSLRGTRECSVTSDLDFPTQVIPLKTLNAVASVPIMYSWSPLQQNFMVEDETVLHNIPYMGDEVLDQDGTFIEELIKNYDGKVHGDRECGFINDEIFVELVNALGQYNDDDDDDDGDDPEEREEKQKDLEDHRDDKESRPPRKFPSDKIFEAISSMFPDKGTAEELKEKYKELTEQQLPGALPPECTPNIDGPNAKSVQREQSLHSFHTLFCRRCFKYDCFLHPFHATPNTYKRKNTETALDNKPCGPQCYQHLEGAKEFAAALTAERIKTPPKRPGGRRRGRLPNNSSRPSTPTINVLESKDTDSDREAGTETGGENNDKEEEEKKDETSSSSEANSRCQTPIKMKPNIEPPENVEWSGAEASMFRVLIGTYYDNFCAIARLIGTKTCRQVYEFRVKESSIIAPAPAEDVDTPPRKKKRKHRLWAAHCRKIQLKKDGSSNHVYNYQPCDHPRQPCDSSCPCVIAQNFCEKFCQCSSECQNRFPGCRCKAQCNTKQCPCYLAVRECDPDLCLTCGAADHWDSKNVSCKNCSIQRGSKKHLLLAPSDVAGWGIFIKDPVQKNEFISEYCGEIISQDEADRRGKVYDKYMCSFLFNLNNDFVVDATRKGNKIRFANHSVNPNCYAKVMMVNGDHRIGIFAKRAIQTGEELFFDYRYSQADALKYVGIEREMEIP
Data set [2] has as its system DB. The data set is described as follows: Antiproliferative activity against human DB cells assessed as reduction in cell viability at 3000 nM measured after 8 days by cell proliferation assay. The following applies: time 8.0 day. It is filed as functional, cell-based.
Data set [3] addresses Histone-lysine N-methyltransferase EZH2 (Homo sapiens, UniProt Q15910, Y641F). As to the kind of experiment: Inhibition of EZH2 Y641F mutant (unknown origin) using HMT as substrate incubated for 60 mins by luminescence based analysis.
The nature of data set [4]: Cytotoxicity against human MCF-10A cells assessed as reduction in cell viability by alamar blue assay. It is filed as toxicity, cell-based.
Data set [5] has as its system DB. As to the kind of experiment: Downregulation of EZH2 level in human DB cells at 3000 nM measured after 3 days. As to conditions: time 3.0 day. Format: functional, cell-based.
Data set [6] addresses Histone-lysine N-methyltransferase EZH1 (Homo sapiens, UniProt Q92800). The data set is described as follows: Inhibition of EZH1 methyltransferase activity (unknown origin) in PRC2 complex using 3H-SAM as substrate by Scintillation proximity assay.
Data set [7] relates to DB. As to the kind of experiment: Downregulation of H3K27me3 level in human DB cells at 3000 nM measured after 3 days. Format: functional, cell-based. As to conditions: time 3.0 day.
Data set [8] has as its target T1, Histone-lysine N-methyltransferase EZH2. The data set is described as follows: Binding affinity to GFP-tagged EZH2 in HEK293 cells assessed as nuclear colocalization at 3.75 uM incubated for 15 mins by imaging based analysis. It is filed as cell-based.
Target sequence in this assay (Q15910 whole entry, looked up): as the sequence (Q15910 whole entry) above
The target of data set [9] is Histone-lysine N-methyltransferase EZH2 (Mus musculus) (UniProt Q61188). As to the kind of experiment: Binding affinity to EZH2 in mouse MEF cells expressing YPet fluorophore assessed as increase in fluorescence intensity in nucleus at 3.75 uM incubated for 15 mins. It is filed as cell-based.
Chain of Histone-lysine N-methyltransferase EZH2 (Mus musculus) (Q61188 whole entry): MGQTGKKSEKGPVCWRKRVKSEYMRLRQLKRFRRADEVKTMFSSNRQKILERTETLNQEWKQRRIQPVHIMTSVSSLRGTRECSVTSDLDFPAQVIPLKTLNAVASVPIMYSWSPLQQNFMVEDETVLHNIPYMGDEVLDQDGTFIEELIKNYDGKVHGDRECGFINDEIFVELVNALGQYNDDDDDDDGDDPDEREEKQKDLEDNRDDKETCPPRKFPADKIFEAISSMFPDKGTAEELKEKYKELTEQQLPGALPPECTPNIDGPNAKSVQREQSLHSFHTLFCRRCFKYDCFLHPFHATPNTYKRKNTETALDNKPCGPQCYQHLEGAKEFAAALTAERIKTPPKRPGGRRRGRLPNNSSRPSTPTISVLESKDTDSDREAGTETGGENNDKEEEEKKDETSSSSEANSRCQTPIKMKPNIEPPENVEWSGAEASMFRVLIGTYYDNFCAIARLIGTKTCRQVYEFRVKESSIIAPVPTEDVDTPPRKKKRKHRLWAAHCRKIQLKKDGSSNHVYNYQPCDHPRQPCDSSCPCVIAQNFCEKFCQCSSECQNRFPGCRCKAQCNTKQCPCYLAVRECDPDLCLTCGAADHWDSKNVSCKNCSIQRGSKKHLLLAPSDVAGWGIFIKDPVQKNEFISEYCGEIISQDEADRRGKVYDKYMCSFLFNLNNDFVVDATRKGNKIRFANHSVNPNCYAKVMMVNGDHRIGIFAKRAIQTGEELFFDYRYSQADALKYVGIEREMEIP

Chain of Histone-lysine N-methyltransferase EZH1 (Q92800 whole entry): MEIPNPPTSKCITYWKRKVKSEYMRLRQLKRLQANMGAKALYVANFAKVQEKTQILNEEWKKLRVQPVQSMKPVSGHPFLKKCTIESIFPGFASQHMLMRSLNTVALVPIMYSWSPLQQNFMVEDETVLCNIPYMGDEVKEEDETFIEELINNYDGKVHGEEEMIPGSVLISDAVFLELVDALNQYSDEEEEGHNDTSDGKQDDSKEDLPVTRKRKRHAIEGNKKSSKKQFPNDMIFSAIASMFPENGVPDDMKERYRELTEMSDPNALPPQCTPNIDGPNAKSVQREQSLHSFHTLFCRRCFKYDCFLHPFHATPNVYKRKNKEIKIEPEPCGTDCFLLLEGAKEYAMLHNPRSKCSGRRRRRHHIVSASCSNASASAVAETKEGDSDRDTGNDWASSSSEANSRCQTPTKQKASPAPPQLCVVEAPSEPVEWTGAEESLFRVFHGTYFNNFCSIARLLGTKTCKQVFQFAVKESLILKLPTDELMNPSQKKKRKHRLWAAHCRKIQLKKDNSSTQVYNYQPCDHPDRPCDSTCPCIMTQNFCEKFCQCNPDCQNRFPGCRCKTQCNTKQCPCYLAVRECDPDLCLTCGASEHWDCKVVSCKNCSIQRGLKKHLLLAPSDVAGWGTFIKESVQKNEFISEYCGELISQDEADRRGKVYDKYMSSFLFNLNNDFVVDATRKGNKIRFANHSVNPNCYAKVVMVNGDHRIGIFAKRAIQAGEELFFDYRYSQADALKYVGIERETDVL
Chain of Histone-lysine N-methyltransferase EZH2 (Homo sapiens, UniProt Q15910, Y641F) (Q15910 whole entry Y641F): as the sequence (Q15910 whole entry) above, with Y641F counted along it

In the case of `CCCc1cc(C)[nH]c(=O)c1CNC(=O)c1cc(-c2ccc(N3CCN(C)CC3)nc2)cc2c1cnn2C(C)C`, in data set [1], the pIC50 (usually −log10 of the IC50, conventionally taken in molar units) is over 8.00.
On to `CCCc1cc(C)n(C)c(=O)c1CN(C)C(=O)c1cc(-c2ccc(N3CCN(C(C)C)CC3)nc2)cc2c1cnn2C(C)C`, for which the result in the data set with DB [2], with DB [5] and in the data set on DB [7] was inactive. Further, the pIC50 in data set [3] was under 3.70; in data set [1], 4.89; in data set [6], 4.21. Further, in [4], the pEC50 – broadly, the EC50 on a negative log10 scale, so that one unit is a factor of ten – was 4.56.
As for `CCCc1cc(C)[nH]c(=O)c1CNC(=O)c1cc(-c2ccc(N3CCN(C(=O)CCOCCOCCOCCOCCOCCOCCOCCOCCOCCOCCOCCOCCNC(=O)CCCC[C@@H]4SC[C@@H]5NC(=O)N[C@@H]54)CC3)nc2)cc2c1cnn2C(C)C`, the pIC50 in [1] is 7.77.
Same read-out and setting: then `CCCc1cc(C)[nH]c(=O)c1CNC(=O)c1cc(-c2ccc(F)cn2)cc2c1cnn2C(C)C`, with 8.00.
On to `CCCc1cc(C)[nH]c(=O)c1CNC(=O)c1cc(-c2ccc(N3CCNCC3)nc2)cc2c1cnn2C(C)C`, for which the pIC50 in data set [1] is over 8.00.
In [1], `CCCc1cc(C)[nH]c(=O)c1CNC(=O)c1cc(-c2ccc(F)cc2)cc2c1cnn2C(C)C` gave a pIC50 of 7.20.
Consider `CCCc1cc(C)[nH]c(=O)c1CNC(=O)c1cc(-c2ccc(N3CCN(CC)CC3)nc2)cc2c1cnn2C(C)C`, for which the pIC50 in data set [1] was over 8.00.
`CCCc1cc(C)[nH]c(=O)c1CNC(=O)c1cc(-c2ccc(N3CCN(CCCCc4cn(CCN5C(=O)/C(=C/C=C/C=C6\N(CCC(=O)OCOC(C)=O)c7ccc(C(=O)OCOC(C)=O)cc7C6(C)C)C(=O)N(CC)C5=O)nn4)CC3)nc2)cc2c1cnn2C(C)C`: the result in [8] and in data set [9] was Active. In [1], the negative-log IC50 (pIC50) was 7.68.
